The target of the assay is EGFR WT (Homo sapiens (Human), UniProt P00533). Put plainly: ErbB enzyme assay (CisBio HTRF-KinEASE-TK), EGFR WT. It is filed as biochemical. As to conditions: ATP at Km (25 μM), 1 h incubation. As to the method:
In vitro enzyme assays based on CisBio HTRF-KinEASE-TK technology were used to determine compound potencies. […]. Compounds were prepared as a three-fold serial dilution in DMSO and added to the assay to give the appropriate final concentration. After a 1 h incubation at ambient temperature, the reaction was quenched by adding 10 μL of 62.5 nM Sa-XL665 and 0.25×TK-Ab-Cryptate in HTRF detection buffer (all from CisBio, part of cat #62TKOPEC). After another 1 h incubation at ambient temperature, the extent of substrate phosphorylation was determined using a PerkinElmer EnVision multimode plate reader via time-resolved fluorescence dual wavelength detection. The percent of control (POC) was calculated using the ratio of emission at […] to the emission at 620 nm. One hundred POC was determined using DMSO only controls (no test compounds present) and zero POC was determined using pre-quenched controls reactions. A 4-parameter logistic equation was fit to the POC values as a function of the test compound concentration and the IC50 value was determined as the point where the curve crossed 50 POC.

Sequence of EGFR WT (P00533 25-1210): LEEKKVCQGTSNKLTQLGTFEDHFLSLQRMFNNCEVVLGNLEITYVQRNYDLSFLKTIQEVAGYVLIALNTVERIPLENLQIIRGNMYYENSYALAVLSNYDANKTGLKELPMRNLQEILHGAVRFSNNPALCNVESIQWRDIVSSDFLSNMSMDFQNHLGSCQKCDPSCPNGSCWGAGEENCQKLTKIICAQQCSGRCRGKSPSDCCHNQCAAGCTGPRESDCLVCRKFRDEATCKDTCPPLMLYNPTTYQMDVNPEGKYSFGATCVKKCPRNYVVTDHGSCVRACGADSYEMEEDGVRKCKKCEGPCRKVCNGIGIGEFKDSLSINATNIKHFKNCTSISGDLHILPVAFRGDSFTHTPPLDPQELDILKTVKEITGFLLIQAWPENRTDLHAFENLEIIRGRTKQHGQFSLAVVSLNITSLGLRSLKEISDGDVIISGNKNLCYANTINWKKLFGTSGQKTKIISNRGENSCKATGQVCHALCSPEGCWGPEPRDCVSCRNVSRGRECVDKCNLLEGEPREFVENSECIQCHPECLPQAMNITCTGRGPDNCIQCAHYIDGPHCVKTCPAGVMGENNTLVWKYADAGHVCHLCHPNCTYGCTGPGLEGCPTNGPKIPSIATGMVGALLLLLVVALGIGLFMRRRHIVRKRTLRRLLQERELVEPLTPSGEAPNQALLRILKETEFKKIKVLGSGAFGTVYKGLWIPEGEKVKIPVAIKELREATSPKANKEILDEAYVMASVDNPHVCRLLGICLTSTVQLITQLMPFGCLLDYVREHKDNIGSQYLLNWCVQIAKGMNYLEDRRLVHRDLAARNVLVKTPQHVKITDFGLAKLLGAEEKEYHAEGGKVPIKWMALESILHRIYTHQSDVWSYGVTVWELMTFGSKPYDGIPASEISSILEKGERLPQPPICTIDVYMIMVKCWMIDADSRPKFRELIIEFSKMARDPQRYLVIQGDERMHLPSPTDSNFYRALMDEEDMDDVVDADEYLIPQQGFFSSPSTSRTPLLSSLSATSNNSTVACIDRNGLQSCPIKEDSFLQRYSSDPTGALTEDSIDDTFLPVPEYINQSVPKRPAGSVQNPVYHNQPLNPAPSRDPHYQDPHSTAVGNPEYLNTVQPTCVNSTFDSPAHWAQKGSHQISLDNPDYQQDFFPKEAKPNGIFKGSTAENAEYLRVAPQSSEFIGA

Molecule `C=CC(=O)N[C@@H]1CCN(c2ccc3ncnc(Nc4ccc(Oc5ccc6c(c5)nnn6C)c(C)c4F)c3n2)C[C@@H]1F` [Compound 279, N-((3S,4R)-3-fluoro-1-(4-((2-fluoro-3-methyl-4-((1-methyl-1H-benzo[d][1,2,3]triazol-5-yl)oxy)phenyl)amino)pyrido[3,2-d]pyrimidin-6-yl)piperidin-4-yl)acrylamide] yielded an IC50 of 500 to 1000 nM.

Turning to `C=CC(=O)N1CCN(c2ccc3ncnc(Nc4ccc(Oc5ccc6c(c5)nnn6C)c(C)c4)c3n2)CC1CF` (stereo not shown) [Compound 313, 1-(2-(fluoromethyl)-4-(4-((3-methyl-4-((1-methyl-1H-benzo[d][1,2,3]triazol-5-yl)oxy)phenyl)amino)pyrido[3,2-d]pyrimidin-6-yl)piperazin-1-yl)prop-2-en-1-one], the IC50 is under 50 nM.

`C=CC(=O)N1CCN(c2nc3c(Nc4ccc(Oc5cc(F)c6c(c5)nnn6C)c(C)c4F)ncnc3cc2OC)CC1` [Compound 99, 1-(4-(4-((2-fluoro-4-((7-fluoro-1-methyl-1H-benzo[d][1,2,3]triazol-5-yl)oxy)-3-methylphenyl)amino)-7-methoxypyrido[3,2-d]pyrimidin-6-yl)piperazin-1-yl)prop-2-en-1-one] gave an IC50 of under 50 nM.

`C=CC(=O)N1CCN(c2ccc3ncnc(Nc4ccc(Oc5ccc6c(c5)nnn6C)c(C)c4)c3n2)C[C@@H]1C` [Compound 72, (S)-1-(2-methyl-4-(4-((3-methyl-4-((1-methyl-1H-benzo[d][1,2,3]triazol-5-yl)oxy)phenyl)amino)pyrido[3,2-d]pyrimidin-6-yl)piperazin-1-yl)prop-2-en-1-one] registered an IC50 of 100 to 500 nM.

On to `C=CC(=O)N1CCC(Oc2ncc3ncnc(Nc4ccc(Oc5ccc6c(c5)ncn6C(F)F)c(C)c4)c3n2)CC1` [Compound 380, 1-(4-((8-((4-((1-(difluoromethyl)-1H-benzo[d]imidazol-5-yl)oxy)-3-methylphenyl)amino)pyrimido[5,4-d]pyrimidin-2-y1)oxy)piperidin-1-yl)prop-2-en-1-one], for which the IC50 is under 50 nM.

`C=CC(=O)N1CC(Oc2ncc3ncnc(Nc4ccc(Oc5ccc6c(c5)ncn6C)c(C)c4)c3n2)C1` [Compound 383, 1-(3-((8-((3-methyl-4-((1-methyl-1H-benzo[d]imidazol-5-yl)oxy)phenyl)amino)pyrimido[5,4-d]pyrimidin-2-yl)oxy)azetidin-1-yl)prop-2-en-1-one] came in with an IC50 of under 50 nM.

Consider `C=CC(=O)N[C@@H]1CCCN(c2ncc3ncnc(Nc4ccc(Oc5ccc6c(c5)nnn6C)c(C)c4F)c3n2)CC1` [Compound 172, (R)-N-(1-(8-((2-fluoro-3-methyl-4-((1-methyl-1H-benzo[d][1,2,3]triazol-5-yl)oxy)phenyl)amino)pyrimido[5,4-d]pyrimidin-2-yl)azepan-4-yl)acrylamide], for which the IC50 was at least 1000 nM.

The molecule `C=CC(=O)N1CC2CCC1CN2c1ncc2ncnc(Nc3ccc(Oc4ccc5c(c4)nnn5C)c(C)c3)c2n1` (stereo not shown) [Compound 62, 1-(5-(8-((3-methyl-4-((1-methyl-1H-benzo[d][1,2,3]triazol-5-yl)oxy)phenyl)amino)pyrimido[5,4-d]pyrimidin-2-yl)-2,5-diazabicyclo[2.2.2]octan-2-yl)prop-2-en-1-one] had an IC50 of under 50 nM.

Molecule `C=C(F)C(=O)N1CCN(c2ncc3ncnc(Nc4ccc(Oc5ccc6c(c5)nnn6C)c(C)c4)c3n2)C[C@H]1COC` [Compound 211, (S)-2-fluoro-1-(2-(methoxymethyl)-4-(8-((3-methyl-4-((1-methyl-1H-benzo[d][1,2,3]triazol-5-yl)oxy)phenyl)amino)pyrimido [5,4-d]pyrimidin-2-yl)piperazin-1-yl) prop-2-en-1-one] displayed an IC50 of at least 1000 nM.

Turning to `C=C(COC)C(=O)N1C2CC1CN(c1ncc3ncnc(Nc4ccc(Oc5ccc6c(c5)nnn6C)c(C)c4)c3n1)C2` [Compound 213, 2-(methoxymethyl)-1-(3-(8-((3-methyl-4-((1-methyl-1H-benzo[d][1,2,3]triazol-5-yl)oxy)phenyl)amino)pyrimido [5,4-d]pyrimidin-2-yl)-3,6-diazabicyclo[3.1.1]heptan-6-yl)prop-2-en-1-one], the IC50 is at least 1000 nM.

Values taken from US20250129078A1, “ERBB2 INHIBITORS” (Cogent Biosciences, Inc., priority 2023, published 2025).
